What all share (assay): relative viability (nuclei count vs DMSO), 5 days (fraction); higher = more cells survive
Compound in assay [1]: C[C@@]1(C(=O)Nc2ccc(F)nc2)CCCN1c1nc(Nc2cc(C3CC3)n[nH]2)c2cccn2n1 + CCNC(=O)c1noc(-c2cc(C(C)C)c(O)cc2O)c1-c1ccc(CN2CCOCC2)cc1 [Luminespib] (partner 0.01 µM)
The procedure, abridged: (§1)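 Lung cancer cell lines were seeded in 1536-well plates and dosed by pin tool the next day, with either a single drug or a fixed anchor-drug dose combined with five library-drug doses (not always all listed) spaced in √10 steps. Five days later, one step fixed the cells and stained their nuclei (final 0.05% Triton X-100, 1% formaldehyde, 1 ug/ml Hoechst), and nuclei were counted on 4× images. Relative viability is the nuclei count in treated wells divided by the count in vehicle wells, and each value is the median of duplicate plates.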

Compound in the assay “Motesanib + Pemetrexed”: CC1(C)CNc2cc(NC(=O)c3cccnc3NCc3ccncc3)ccc21 [Motesanib] + Nc1nc2[nH]cc(CCc3ccc(C(=O)N[C@@H](CCC(=O)O)C(=O)O)cc3)c2c(=O)[nH]1 [Pemetrexed] (partner 0.2 µM)
The procedure, abridged: as §1

Compound in the assay “Motesanib + Dasatinib”: CC1(C)CNc2cc(NC(=O)c3cccnc3NCc3ccncc3)ccc21 [Motesanib] + Cc1nc(Nc2ncc(C(=O)Nc3c(C)cccc3Cl)s2)cc(N2CCN(CCO)CC2)n1 [Dasatinib] (partner 0.075 µM)
The procedure, abridged: as §1

Compound in the assay “Motesanib + Crizotinib”: CC1(C)CNc2cc(NC(=O)c3cccnc3NCc3ccncc3)ccc21 [Motesanib] + C[C@@H](Oc1cc(-c2cnn(C3CCNCC3)c2)cnc1N)c1c(Cl)ccc(F)c1Cl [Crizotinib] (partner 1 µM)
The procedure, abridged: as §1

As to UMC-11, the relative viability in assay [1] (first compound 0.04 µM) turned out to be 0.94; in assay [1] (first compound 0.1265 µM) it was 1.01; in assay [1] (first compound 0.4 µM) it was 0.968; in assay [1] (first compound 1.265 µM), 0.726; with Motesanib + Pemetrexed (first compound 0.01 µM), 0.834; in the assay with Motesanib + Pemetrexed (first compound 0.03162 µM) it was 0.696. Also, the relative viability with Motesanib + Pemetrexed (first compound 0.1 µM) was found to be 0.575; with Motesanib + Pemetrexed (first compound 0.3162 µM) it was 0.608; with Motesanib + Pemetrexed (first compound 1 µM), 0.556; with Motesanib + Dasatinib (first compound 0.01 µM) it was 0.435; in the assay with Motesanib + Dasatinib (first compound 0.03162 µM), 0.447; with Motesanib + Dasatinib (first compound 0.1 µM), 0.489. Also, the relative viability with Motesanib + Dasatinib (first compound 0.3162 µM) was 0.477; with Motesanib + Dasatinib (first compound 1 µM), 0.471; with Motesanib + Crizotinib (first compound 0.01 µM), 0.526; in the assay with Motesanib + Crizotinib (first compound 0.03162 µM), 0.657; in the assay with Motesanib + Crizotinib (first compound 0.1 µM), 0.631; with Motesanib + Crizotinib (first compound 0.3162 µM), 0.595. For the same cell line, the relative viability with Motesanib + Crizotinib (first compound 1 µM) turned out to be 0.742.

The values above are taken from the supplement of paper PMC10307832.
